Measurements as given in US6599522B2, “Triglyceride reducing agent” (priority 2000, dated 2003).
Values joined by “and” are separate entries in the source; they are usually repeats but may differ in a detail not shown here. Identical values can stand only once. Like-named read-outs stand apart in the source and are kept apart here. Marks after values point to notes of the source that are not given here.

Key:
rats [1] = settings: cited from earlier work
hyperlipidemic patients = assay: Clinical study: effect of the hypolipidemic agent on elevated triglyceride levels in blood; type: in vivo, human
Experimental: Effect (in vivo) of the Hypolipidemic Agent on Elevated Triglyceride Levels in Blood-Clinical Study Patients attending the Endocrinology and Metabolism outpatient department of […] Medical College Hospital were included in the study. Patients with baseline serum total cholesterol above 200 mg/dl and/or serum triglycerides above 200 mg/dl after 6-12 weeks of low fat diet, exercise and weight reduction program, were included in the study. The compliance of the subjects for diet, weight and exercise schedules were monitored throughout the study. The number of patients recruited for the study were 37, including a child. There were […] in the age group of 30 to 62 years. Of the 37 patients, 23 patients were diabetic (type two diabetes) and 16 patients had essential hypertension, and two women and nine men were obese, the others being of normal weight. Two men and one person dropped out of the study, due to unknown causes. Of the original patients, 34 completed the study as per the protocol. In the initial visit, patient's height in centimeters, and weight in kilograms were recorded. After noting detailed history, physical examinations were performed on each patient. Informed consent was taken from all patients and, in the case of minors, from their parents. Blood samples were drawn for routine hematology, fasting and post prandial plasma glucose, blood urea, serum creatinine, liver function test and lipid profile. At each visit, the patient's weight and diet and exercise compliance was checked and blood samples for hematology and lipid profile were drawn. The patients were given 20 mg of Vanillin in gelatin capsule once a day before the main meal. At each visit, pill count was done to check the compliance of the drug intake. The data were recorded in the case record form and computer by authorized persons. The data were analyzed statistically.

hyperlipidemic rats = assay: Dose response spectrum of the hypolipidemic agent, animal assay on hyperlipidemic diet; type: in vivo, Wistar male rats; parameters: Serum triglycerides, TOTAL / Serum triglycerides, LDL-VLDL / Serum triglycerides, HDL: unit not given here; settings: six weeks; for Hypocholesterolemic effect, lowering: mainly LDL-VLDL fraction
Excerpt: Dose Response Spectrum of the Hypolipidemic Agent—Animal Assay: The response in terms of the lowering of triglyceride component in the majority of the human cases were encouraging. This initiated a dose response test in young adult rats to determine a standard response curve. Such a curve would help in choosing the proper doses for further clinical trials and determine the adequacy and nature of the response. The tests were done on groups of young Wistar male rats, statistically distributed on the basis of body weight (125±5 g) into six groups, including a control group. […] The basal hyperlipidemic diet contained (g/100): casein 15, corn starch 40, cane sugar 10, hydrogenated fat 25, refined peanut oil 5, NRC vitamin mixture (choline free) 1, and salt mixture (Bernhardt-Tomarrelli modified) 4. Fat soluble vitamins at desired concentrations were added to the peanut oil. Vanillin was incorporated into the hyperlipidemic diet in replacement of starch at the desired levels. The duration of the test feeding period was six weeks. At the end of the experimental period, the rats were sacrificed and lipid analysis was done using standard procedures.

rats [2] = settings: cited from earlier work; remark: listed apart in the source
[3] = man; cited from earlier work
guinea pigs = settings: guinea pig, in vivo; cited from earlier work
rabbits = settings: rabbit, in vivo; cited from earlier work
[4] = 20 mg/day oral, throughout the study
[5] = mean of 10 patients, baseline mean 425.2, p < 0.0005 vs TG1, 20 mg/day

For `COc1cc(CNC(=O)CCCC/C=C/C(C)C)ccc1O` [capsaicin, reference compound], the “Reduction in serum triglycerides” value (rats [1]; 0.3 mg % capsaicin) is listed as 13%.
With `COc1cc(C=O)ccc1O` [Vanillin, 4-hydroxy-3-methoxybenzaldehyde] the “Change in serum HDL level” value (hyperlipidemic patients; 20 mg/day) was “no significant change”, the “Adverse effects in patients” value (hyperlipidemic patients; [4]) was “No adverse effects” and the “Routine biochemistry, hematology and liver function tests” value (hyperlipidemic patients; [4]) was “did not show any significant change”. The “DELTA = (TG1 − TG3)” value (hyperlipidemic patients; individual patient, before treatment minus 6 weeks after treatment, 20 mg/day) was 243 mg/dL and 199 mg/dL and 218 mg/dL and 120 mg/dL and 168 mg/dL and 236 mg/dL and 133 mg/dL and 250 mg/dL and 158 mg/dL and 224 mg/dL, the “(DELTA/TG1) ×100” value (hyperlipidemic patients; individual patient, reduction of serum triglyceride at 6 weeks, 20 mg/day) was 41.68% and 52.15% and 53.96% and 42.25% and 30.65% and 49.58% and 43.18% and 58.14% and 47.02% and 44.44% and the “DELTA = (TG1 − TG3), mean” value (hyperlipidemic patients; mean of 10 patients, 20 mg/day) was 194.9 mg/dL. The “(DELTA/TG1) ×100, mean” value (hyperlipidemic patients; mean of 10 patients, 6 weeks, 20 mg/day) was 46.34%, the “TG2: fasting serum triglyceride level 3 weeks after treatment, mean” value (hyperlipidemic patients; [5]) was 306.0** mg/dl and the “TG3: fasting serum triglyceride level 6 weeks after treatment, mean” value (hyperlipidemic patients; [5]) was 230.3 mg/dL. The “Change from baseline total cholesterol, mean” value (hyperlipidemic patients; mean, 20 mg/day) was 74.5 mg/dL, the “Reduction of serum triglyceride” value (hyperlipidemic patients; patient, about six weeks, 20 mg/day) was “up to 75%” and the “Serum triglyceride after treatment” value (hyperlipidemic patients; patient, initial value 3078 mg/dl, about six weeks, 20 mg/day) was 786 mg/dL. The Liver total lipids (hyperlipidemic rats; 0.125% and 0.25% in diet) was “significantly higher”, the “Triglycerides in the liver” value (hyperlipidemic rats; 0.125% and 0.25% in diet) was “higher accumulation” and the “Decrease in HDL cholesterol” value (hyperlipidemic rats; 0.125% in diet) was 16%. The “Hypocholesterolemic effect, lowering” value (hyperlipidemic rats; 0.125% in diet) was 18%, the “Serum triglycerides, HDL” value (hyperlipidemic rats; 0.125% in hyperlipidemic diet) was 69.3 ± 7.0 and the “Serum triglycerides, LDL-VLDL” value (hyperlipidemic rats; 0.125% in hyperlipidemic diet) was 128.3 ± 4.1. For the same compound, the “Serum triglycerides, TOTAL” value (hyperlipidemic rats; 0.125% in hyperlipidemic diet) was 197.6 ± 9.74, the “Hypocholesterolemic effect, lowering” value (hyperlipidemic rats; 0.25% in diet) was 12% and the “Serum triglycerides, HDL” value (hyperlipidemic rats; 0.25% in hyperlipidemic diet) was 74.3 ± 10.4. For the same compound, the “Serum triglycerides, LDL-VLDL” value (hyperlipidemic rats; 0.25% in hyperlipidemic diet) was 147.1 ± 6.5, the “Serum triglycerides, TOTAL” value (hyperlipidemic rats; 0.25% in hyperlipidemic diet) was 221.4 ± 16.5 and the “Decrease in serum phospholipids” value (hyperlipidemic rats; 0.5% in diet) was 19%. The “Serum triglycerides, HDL” value (hyperlipidemic rats; 0.5% in hyperlipidemic diet) was 29.8 ± 6.5, the “Serum triglycerides, LDL-VLDL” value (hyperlipidemic rats; 0.5% in hyperlipidemic diet) was 127.0 ± 4.3 and the “Serum triglycerides, TOTAL” value (hyperlipidemic rats; 0.5% in hyperlipidemic diet) was 156.8 ± 10.4. The Adipose fat (hyperlipidemic rats; 1% and 5% levels in diet) was “lowered”, the “Decrease in serum phospholipids” value (hyperlipidemic rats; 1.0% in diet) was 14% and the “Serum triglycerides, HDL” value (hyperlipidemic rats; 1.0% in hyperlipidemic diet) was 41.7 ± 5.5. The “Serum triglycerides, LDL-VLDL” value (hyperlipidemic rats; 1.0% in hyperlipidemic diet) was 104.8 ± 4.9, the “Serum triglycerides, TOTAL” value (hyperlipidemic rats; 1.0% in hyperlipidemic diet) was 146.5 ± 9.33 and the “Serum triglycerides, HDL” value (hyperlipidemic rats; 5.0% in hyperlipidemic diet) was 38.6 ± 4.8. For the same compound, the “Serum triglycerides, LDL-VLDL” value (hyperlipidemic rats; 5.0% in hyperlipidemic diet) was 141.8 ± 10.3, the “Serum triglycerides, TOTAL” value (hyperlipidemic rats; 5.0% in hyperlipidemic diet) was 180.4 ± 3.69 and the Liver weights (hyperlipidemic rats; any of the levels tested (0.125-5% in diet)) was “not affected”. For the same compound, the “Reduction in serum triglycerides” value (rats [1]; 0.15 mg % vanillin) was 24%, the “Body and organ weights, hematology, and histopathology, test versus control rats” value (rats [2]; 1.0% of diet 16 weeks, 0.1% 27 to 28 weeks, 2.0% and 5.0% one year, 0.5%, 1.0% and 2.0% two years) was “no significant differences” and the Adverse effects (rats [2]; rats, 5% diet for 90 days (earlier study)) was “growth depression and organ enlargement”. The “Daily intake equal to the highest level without adverse effect” value (rats [2]; rats, 5% in diet) was ~2500 mg/kg, the “Highest level consumed without adverse effect” value (rats [2]; rats, level in diet) was 5% and the Adverse effects (rats [2]; rats, oral, once a day 20 mg/kg/d for 126 days) was “no adverse effects”. The Adverse effects (rats [2]; rats, oral, twice per week 300 mg/kg/dose for 14 weeks) was “no adverse effects”, the “Highest no-adverse-effect intake relative to estimated per capita daily intake” value (rats [2]; versus a 60-kg person) was ~14,000 times and the Metabolism and excretion [3] was “converted to vanillic acid in the liver and is excreted in the urine”. For the same compound, the “Acute oral LD50” value (guinea pigs) was 1400 mg/kg and the “Acute oral LD50” value (rabbits) was 3000 mg/kg.
